According to PubChem BioAssay AID1963977 (Molecular Pharmacology Branch, DTP, NCI, 2024):

Test system: 624824-186-R-J3-PDC multicell spheroids, viability
Test: Anticancer human tumor 624824-186-R-J3-PDC patient-derived colon adenocarcinoma cell line growth inhibition [PI3K]
Conditions: for IC50: curve of first compound; for viability, T/C: stronger effect = lower value
From the text: Combinatorial screen of targeted agents with the PI3K inhibitors inavolisib, alpelisib, duvelisib, and copanlisib in multi-cell type tumor spheroids
A high-throughput screen of multi-cell type tumor spheroids was designed to identify active combinations of targeted small molecules and PI3K pathway inhibitors. Complex spheroids include a stromal component modeled by human endothelial cells (HUVEC) and fibroblasts modeled by human mesenchymal stem cells (MSCs). The concentration ranges selected for each drug and investigational agent were based upon clinically achievable concentrations if the clinical Cmax of the agent was known.
Compounds. The drugs and investigational agents: inavolisib (NSC800729), alpelisib (NSC765974), duvelisib (NSC772469), copanlisib (NSC816437), ipatasertib (NSC767898), afuresertib (NSC778305), talazoparib (NSC767125), sapanisertib (NSC764658), selumetinib (NSC741078), tovorafenib (DAY101, NSC766906), vemurafenib (NSC761431), ravoxertinib (NSC781343), sotorasib (NSC818433), MRTX1133 (NSC 836407), abemaciclib (NSC 768073), palbociclib (NSC758247), venetoclax (NSC 766270), SY5609 (NSC837396), enzalutamide (NSC755605), and darolutamide (NSC825331), were obtained from the National Cancer Institute (NCI) Developmental Therapeutics Program Chemical Repository. The FDA-approved anticancer drug set is available from the NCI Developmental Therapeutics Program. […] The stock solutions were prepared in dimethyl sulfoxide (DMSO, Sigma-Aldrich, St. Louis, MO, cat. D2650) at 800-fold the tested concentration and stored at -70 degrees C prior to their use. All drugs and investigational agents were tested over a range starting from a high concentration at or near the clinical Cmax and decreasing in half-log increments. If the clinical Cmax for an agent had not been determined, the highest concentration tested was 10 microM.
Cell Culture. All cells were maintained in an incubator at 37 degrees C and 5% CO2 with 95% humidity. The PDC lines were cultured according to standard operating procedures established by the NCI PDMR (https://pdmr.cancer.gov/sops/default.htm). All PDCs were thawed and cultured in Matrigel-coated flasks prepared with a working solution of 1X Ham's F-12 nutrient mix, without supplementation (Invitrogen, Waltham, MA, cat. 11765054), 100 U/mL penicillin-streptomycin (Invitrogen, cat. 15140122), and 2.5% Matrigel (Corning Inc., Corning, NY, cat. 354248) for the first three passages. The 354836-022-R-J1-PDC, 475296-252-R-J1-PDC, and 997726-040-R-J2-PDC lines were cultured in 6A media, which includes advanced DMEM/F-12 (Thermo Fisher Scientific, cat. 12634028), 10 mM HEPES (Thermo Fisher Scientific, cat. 15630080), 1X GlutaMAX supplement (Thermo Fisher Scientific, cat. 35050061), 0.1 mg/mL primocin (InvivoGen, San Diego, CA, cat. ant-pm-2), 10% defined fetal bovine serum, heat inactivated (HyClone Laboratories Inc., Logan, UT, cat. SH30070.03HI), 50% L-WRN conditioned media (ATCC, cat. CRL-3276), 1.25 mM N-Acetyl-L-cysteine (Sigma-Aldrich, cat. A9165), 10 mM nicotinamide (Sigma-Aldrich, cat. N0636), 1X B-27 supplement (Thermo Fisher Scientific, cat. 17504044), 1X N-2 supplement (Thermo Fisher Scientific, cat. 17502048), and 10 microM Y-27632 dihydrochloride (Tocris Bioscience, Bristol, United Kingdom, cat. 1254). The 624824-186-R-J2-PDC line was cultured in 6C/Colon 1B media, which includes all 6A media components plus 50 ng/mL human EGF recombinant protein (Thermo Fisher Scientific, cat. PHG0311). […]

[1] = second compound 0.0316 µM, first compound 0.0316 µM
[2] = second compound 0.0316 µM, first compound 0.1 µM
[3] = second compound 0.0316 µM, first compound 0.316 µM
[4] = second compound 0.0316 µM, first compound 1 µM
[5] = second compound 0.0316 µM, first compound 3.16 µM
[6] = second compound 0.0316 µM, first compound 10 µM
[7] = second compound 0.1 µM, first compound 0.0316 µM
[8] = second compound 0.1 µM, first compound 0.1 µM
[9] = second compound 0.1 µM, first compound 0.316 µM
[10] = second compound 0.1 µM, first compound 1 µM
[11] = second compound 0.1 µM, first compound 3.16 µM
[12] = second compound 0.1 µM, first compound 10 µM
[13] = second compound 0.316 µM, first compound 0.0316 µM
[14] = second compound 0.316 µM, first compound 0.1 µM
[15] = second compound 0.316 µM, first compound 0.316 µM
[16] = second compound 0.316 µM, first compound 1 µM
[17] = second compound 0.316 µM, first compound 3.16 µM
[18] = second compound 0.316 µM, first compound 10 µM
[19] = second compound 1 µM, first compound 0.0316 µM
[20] = second compound 1 µM, first compound 0.1 µM
[21] = second compound 1 µM, first compound 0.316 µM
[22] = second compound 1 µM, first compound 1 µM
[23] = second compound 1 µM, first compound 3.16 µM
[24] = second compound 1 µM, first compound 10 µM
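Note: spheroids exposed to agents for seven days before luminescence read.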
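Throughout, for viability, T/C: luminescent signal used as a stand-in for spheroid viability; percent viability relative to DMSO vehicle control wells taken as 100%.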

CCCS(=O)(=O)Nc1ccc(F)c(C(=O)c2c[nH]c3ncc(-c4ccc(Cl)cc4)cc23)c1F + CC(Nc1ncnc2nc[nH]c12)c1cc2cccc(Cl)c2c(=O)n1-c1ccccc1
IC50 (second compound 0.0316 µM): 4.91 µM
IC50 (second compound 0.1 µM): 4.92 µM
IC50 (second compound 0.316 µM): 5.07 µM
IC50 (second compound 1 µM): 4.8 µM
IC50 (second compound 3.16 µM): 4.68 µM
IC50 (second compound 10 µM): 2.45 µM
viability, T/C [1]: 102%
viability, T/C [2]: 101%
viability, T/C [3]: 89.4%
viability, T/C [4]: 98%
viability, T/C [5]: 76%
viability, T/C [6]: 7.94%
viability, T/C [7]: 102%
viability, T/C [8]: 104%
viability, T/C [9]: 94.1%
viability, T/C [10]: 90.5%
viability, T/C [11]: 78.9%
viability, T/C [12]: 6.92%
viability, T/C [13]: 102%
viability, T/C [14]: 95.2%
viability, T/C [15]: 108%
viability, T/C [16]: 91.7%
viability, T/C [17]: 80.4%
viability, T/C [18]: 7.81%
viability, T/C [19]: 99.9%
viability, T/C [20]: 103%
viability, T/C [21]: 91.5%
viability, T/C [22]: 84%
viability, T/C [23]: 78.2%
viability, T/C [24]: 7.61%
viability, T/C (second compound 3.16 µM, first compound 0.0316 µM): 100%
viability, T/C (second compound 3.16 µM, first compound 0.1 µM): 90.5%
viability, T/C (second compound 3.16 µM, first compound 0.316 µM): 97.1%
viability, T/C (second compound 3.16 µM, first compound 1 µM): 81%
viability, T/C (second compound 3.16 µM, first compound 3.16 µM): 74.2%
viability, T/C (second compound 3.16 µM, first compound 10 µM): 9.32%
viability, T/C (second compound 10 µM, first compound 0.0316 µM): 97.4%
viability, T/C (second compound 10 µM, first compound 0.1 µM): 74.6%
viability, T/C (second compound 10 µM, first compound 0.316 µM): 73.7%
viability, T/C (second compound 10 µM, first compound 1 µM): 60.5%
viability, T/C (second compound 10 µM, first compound 3.16 µM): 56%
viability, T/C (second compound 10 µM, first compound 10 µM): 11.7%

CC(Cn1ccc(-c2ccc(C#N)c(Cl)c2)n1)NC(=O)c1cc(C(C)O)[nH]n1 (centres undefined) + CC(Nc1ccc2c(c1)OCCn1cc(N3C(=O)OCC3C(F)F)nc1-2)C(N)=O
IC50 (second compound 0.00316 µM): > 10 µM
IC50 (second compound 0.01 µM): > 10 µM
IC50 (second compound 0.0316 µM): > 10 µM
IC50 (second compound 0.1 µM): > 10 µM
IC50 (second compound 0.316 µM): > 10 µM
IC50 (second compound 1 µM): > 10 µM
viability, T/C (second compound 0.00316 µM, first compound 0.0316 µM): 98.3%
viability, T/C (second compound 0.00316 µM, first compound 0.1 µM): 98.6%
viability, T/C (second compound 0.00316 µM, first compound 0.316 µM): 94.7%
viability, T/C (second compound 0.00316 µM, first compound 1 µM): 92.7%
viability, T/C (second compound 0.00316 µM, first compound 3.16 µM): 94.6%
viability, T/C (second compound 0.00316 µM, first compound 10 µM): 103%
viability, T/C (second compound 0.01 µM, first compound 0.0316 µM): 93%
viability, T/C (second compound 0.01 µM, first compound 0.1 µM): 100%
viability, T/C (second compound 0.01 µM, first compound 0.316 µM): 115%
viability, T/C (second compound 0.01 µM, first compound 1 µM): 101%
viability, T/C (second compound 0.01 µM, first compound 3.16 µM): 103%
viability, T/C (second compound 0.01 µM, first compound 10 µM): 95.5%
viability, T/C [1]: 110%
viability, T/C [2]: 96.4%
viability, T/C [3]: 97.4%
viability, T/C [4]: 107%
viability, T/C [5]: 112%
viability, T/C [6]: 99%
viability, T/C [7]: 101%
viability, T/C [8]: 97.5%
viability, T/C [9]: 93.3%
viability, T/C [10]: 102%
viability, T/C [11]: 102%
viability, T/C [12]: 91%
viability, T/C [13]: 94.2%
viability, T/C [14]: 96%
viability, T/C [15]: 101%
viability, T/C [16]: 91.4%
viability, T/C [17]: 91.5%
viability, T/C [18]: 77.8%
viability, T/C [19]: 87.6%
viability, T/C [20]: 88.2%
viability, T/C [21]: 83.8%
viability, T/C [22]: 88.7%
viability, T/C [23]: 81.9%
viability, T/C [24]: 79.1%
